Laboratory results taken from publication PMC9854410, “Targeted isolation of antitubercular cycloheptapeptides and an unusual pyrroloindoline-containing new analog, asperpyrroindotide A, using LC–MS/MS-based molecular networking” (Marine Life Science & Technology, 2023).
≈ marks a conversion by molar mass, not a printed value. Marks after values point to notes of the source that are not given here. Starred links: 1 amine or outer side, 2 acyl side, 3 side chain; linkers in the order of their positions; H or OH if unused. Non-standard residues stand in square brackets, D forms with d. Residues, ends and D or L forms follow the SMILES beside them. X1 = O=C([C@H]1C[C@]2(O)c3ccccc3N[C@@H]2N1[*:1])[*:2]

Experiments:
[1] = test system: Mycobacterium tuberculosis H37Ra (ATCC 25,177); experiment: microbe, parasite or virus in culture; format: cell-based; conditions: microplate Alamar Blue assay; for inhibitory activity against M. tuberculosis H37Ra at a single concentration: at a concentration of 100 μg/mL
Method: Anti-mycobacterial activity was determined against Mycobacterium tuberculosis H37Ra (ATCC 25,177) in a microplate Alamar Blue assay system (Collins et al. [1997]). The anti-tubercular drug rifampin was used as a positive control.

[2] = test system: Mycobacterium marinum; set-up: method as in Hou et al. [2019b]; conditions: previous research; positive controls rifampin, streptomycin, isoniazid; ref Hou et al. [2019b]; cited from earlier work
[3] = test system: Mycobacterium tuberculosis H37Ra (ATCC 25,177); conditions: reported data; ref Hou et al. 2019; cited from earlier work
Excerpt: Supplement 42995_2022_157_MOESM1_ESM.docx, table 2: Table S2. Antitubercular activity of compounds 1, 8−19 and previously reported 2, 20−23 against Mycobacterium tuberculosis H37Ra | column: MICs (μmol/L)

| Molecule | MICs (μg/mL) against Mycobacterium tuberculosis H37Ra ([1]; rifampin as positive control) | minimum inhibitory concentrations (MICs) against Mycobacterium marinum [2] | also measured |
| --- | --- | --- | --- |
| CC(C)[C@H]1NC(=O)[C@H](Cc2ccccc2)NC(=O)[C@@H](C(C)C)NC(=O)[C@@H](C)NC(=O)[C@H](CO)NC(=O)[C@@H](Cc2c[nH]c3ccccc23)NC(=O)[C@@H](CO)NC1=O [Compound 1, asperversiamide A] (cyclo([dV][dS][dW]S[dA][dV]F)) | > 100 µg/mL | 23.4 µM (≈ 18.2 µg/mL) | – |
| CC(C)[C@H]1NC(=O)[C@H](Cc2ccccc2)NC(=O)[C@@H](C(C)C)NC(=O)[C@@H](C)NC(=O)[C@H](CO)NC(=O)[C@H]2C[C@]3(O)c4ccccc4N[C@@H]3N2C(=O)[C@@H](CO)NC1=O [Compound 8, asperpyrroindotide A] (cyclo([X1]S[dA][dV]F[dV][dS])) | > 100 µg/mL | – | inhibitory activity against M. tuberculosis H37Ra at a single concentration [1]: None of them showed obvious inhibitory activity |
| CC(C)[C@H]1NC(=O)[C@H](Cc2ccccc2)NC(=O)[C@@H](C(C)C)NC(=O)[C@@H](C)NC(=O)[C@H](C)NC(=O)[C@H]2C[C@]3(O)c4ccccc4N[C@@H]3N2C(=O)[C@@H](CO)NC1=O [Compound 9] (cyclo([X1]A[dA][dV]F[dV][dS])) | > 100 µg/mL | – | inhibitory activity against M. tuberculosis H37Ra at a single concentration [1]: None of them showed obvious inhibitory activity |
| NNC(=O)c1ccncc1 [isoniazid, reference compound] | – | 88.5 µM (≈ 12.1 µg/mL) | – |
| CO[C@H]1/C=C/O[C@@]2(C)Oc3c(C)c(O)c4c(O)c(c(/C=N/N5CCN(C)CC5)c(O)c4c3C2=O)NC(=O)/C(C)=C\C=C\[C@H](C)[C@H](O)[C@@H](C)[C@@H](O)[C@@H](C)[C@H](OC(C)=O)[C@@H]1C [rifampin, reference compound] | – | 19.0 µM (≈ 15.6 µg/mL) | MIC ([1]; Mycobacterium tuberculosis, rifampin as positive control, read-out: MICs (μg/mL) against Mycobacterium tuberculosis H37Ra): 0.0156 µg/mL (≈ 0.019 µM) |
| [H]/N=C(/N)N[C@H]1[C@H](O)[C@@H](O)[C@H](O[C@@H]2O[C@@H](C)[C@](O)(C=O)[C@H]2O[C@@H]2O[C@@H](CO)[C@H](O)[C@@H](O)[C@@H]2NC)[C@@H](N/C(N)=N\[H])[C@@H]1O [streptomycin, reference compound] | – | 20.1 µM (≈ 11.7 µg/mL) | – |
| asperversiamide B [Compound 2] | – | 81.2 µM | MICs (μmol/L) against Mycobacterium tuberculosis H37Ra [3]: 100 ^b μmol/L |
| asperversiamide C [Compound 3] | – | 87.5 µM | – |
